Target: T1, BRD9 (Homo sapiens, UniProt Q9H8M2)
T1 sequence (Q9H8M2 1-597): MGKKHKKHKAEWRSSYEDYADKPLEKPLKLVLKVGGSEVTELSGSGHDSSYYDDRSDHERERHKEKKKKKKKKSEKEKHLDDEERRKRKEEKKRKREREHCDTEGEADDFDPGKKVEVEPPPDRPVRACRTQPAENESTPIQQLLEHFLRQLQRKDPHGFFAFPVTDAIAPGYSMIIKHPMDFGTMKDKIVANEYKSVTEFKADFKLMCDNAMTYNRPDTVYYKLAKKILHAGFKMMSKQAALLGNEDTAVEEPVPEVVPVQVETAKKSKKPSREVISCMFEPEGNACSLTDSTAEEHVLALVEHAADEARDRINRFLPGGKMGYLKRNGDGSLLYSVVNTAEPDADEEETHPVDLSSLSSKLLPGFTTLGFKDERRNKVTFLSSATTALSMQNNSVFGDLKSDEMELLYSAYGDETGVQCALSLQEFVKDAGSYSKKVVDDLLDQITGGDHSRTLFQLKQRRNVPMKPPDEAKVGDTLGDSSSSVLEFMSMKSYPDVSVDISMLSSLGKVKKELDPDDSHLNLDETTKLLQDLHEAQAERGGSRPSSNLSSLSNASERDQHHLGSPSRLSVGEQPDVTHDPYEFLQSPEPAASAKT
Assay: Degradation of BRD9 (IF), immunofluorescence in MV4-11 cells, 24 hours (Assay Protocol 2)
Format: cell-based
Parameters: A suspension of MV4-11 cells (ATCC CRL-9591) was prepared; host or cells: MV4-11
Conditions: BRD9 degradation; for DC50: Assay protocol 2, read-out: DC50; for Dmax: MV4-11, Assay protocol 2, read-out: Dmax
How it was run: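 % BRD9 remaining, scaled between DMSO (high) and 100 nM CFT-8634 (low) control wells, derives from mean Alexa 647 contrast in central nuclei by high-content imaging. MV4-11 cells had 24 h compound exposure at 37° C. before PFA fixation, Triton permeabilisation and anti-BRD9 E4Q3F immunostaining.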

## COc1cc(-c2cn(C)c(=O)c(C)c2C)cc(OC)c1CN1CCN(Cc2cccc3c2CCN(C(=O)/C(C#N)=C/C(C)(C)C)C3)C2(CC2)C1 [Compound C2, (E/Z)-2-(5-((7-(2,6-dimethoxy-4-(1,4,5-trimethyl-6-oxo-1,6-dihydropyridin-3-yl)benzyl)-4,7-diazaspiro[2.5]octan-4-yl)methyl)-1,2,3,4-tetrahydroisoquinoline-2-carbonyl)-4,4-dimethylpent-2-enenitrile]
  DC50: 1.25 to 10 nM
  Dmax: > 75%

## COc1cc(-c2cn(C)c(=O)c(C)c2C)cc(OC)c1CN1CCC2(CCN(c3cccc4c3CCN(C(=O)/C(C#N)=C/C(C)(C)C)C4C)C2)C1 (centres unmarked) [Compound C42, (E2Z)-2-(5-(7-(2,6-dimethoxy-4-(1,4,5-trimethyl-6-oxo-1,6-dihydropyridin-3-yl)benzyl)-2,7-diazaspiro[4.4]nonan-2-yl)-1-methyl-1,2,3,4-tetrahydroisoquinolin-2-carbonyl)-4,4-dimethylpent-2-enenitrile]
  DC50: 1.25 to 10 nM
  Dmax: 40 to 70%

## COc1cc(-c2cn(C)c(=O)c(C)c2C)cc(OC)c1CN1CCC(CN(C)c2ccc3c(c2)C(C)N(C(=O)/C(C#N)=C/C(C)(C)C)CC3)CC1 (centres unmarked) [Compound C46]
  DC50: 1.25 to 10 nM
  Dmax: 40 to 70%

## COc1cc(-c2cn(C)c(=O)c(C)c2C)cc(OC)c1CN1CCC2(CC1)CCN(c1cccc3c1CCN(C(=O)/C(C#N)=C/C(C)(C)C)[C@@H]3C)C2 [Compound C47]
  DC50: 1.25 to 10 nM
  Dmax: > 75%

## COc1cc(-c2cn(C)c(=O)c(C)c2C)cc(OC)c1CN1CC(Cc2cccc3c2CCN(C(=O)/C(C#N)=C/C(C)(C)C)C3C)C1 (centres unmarked) [Compound C49]
  Dmax: 40 to 70%

## COc1cc(-c2cn(C)c(=O)c(C)c2C)ccc1OC1CCC(Cc2cccc3c2CCN(C(=O)/C(C#N)=C/C(C)(C)N2CCN(C)CC2)C3C)CC1 (centres unmarked) [Compound C50]
  DC50: 25 to 1000 nM
  Dmax: 70 to 75%

## COc1cc(-c2cn(C)c(=O)c(C)c2C)ccc1OC1CCC(Cc2cccc3c2CCN(C(=O)/C(C#N)=C/C(C)(C)N2CCN(C4COC4)CC2)C3C)CC1 (centres unmarked) [Compound C51]
  DC50: 25 to 1000 nM
  Dmax: 40 to 70%

## COc1cc(-c2cn(C)c(=O)c(C)c2C)cc(OC)c1CN1CCC(Cc2ccc3c(c2)C(C)N(C(=O)/C(C#N)=C/C(C)(C)C)CC3)CC1(C)C (centres unmarked) [Compound C53]
  DC50: 25 to 1000 nM
  Dmax: 40 to 70%

## COc1cc(-c2cn(C)c(=O)c(C)c2C)cc(OC)c1CN1CCC2(CCN(c3ccc4c(c3)[C@H](C)N(C(=O)/C(C#N)=C/C(C)(C)C)CC4)CC2)C1 [Compound C54]
  DC50: 25 to 1000 nM
  Dmax: 40 to 70%

## COc1cc(-c2cn(C)c(=O)c(C)c2C)cc(OC)c1CN1CC(=O)N(Cc2cccc3c2CCN(C(=O)/C(C#N)=C/C(C)(C)C)C3C)C(C)(C)C1 (centres unmarked) [Compound C55]
  DC50: 25 to 1000 nM
  Dmax: > 75%

## COc1cc(-c2cn(C)c(=O)c(C)c2C)ccc1O[C@H]1CC[C@@H](Nc2cccc3c2CCN(C(=O)/C(C#N)=C/C(C)(C)C)C3C)CC1 (some centres unmarked) [Compound C56]
  DC50: 25 to 1000 nM
  Dmax: > 75%

## COc1cc(-c2cn(C)c(=O)c(C)c2C)ccc1OC1CCN(Cc2cccc3c2CCN(C(=O)/C(C#N)=C\C(C)(C)C)C3C)C(C)(C)C1 (centres unmarked) [Compound C58]
  DC50: 10 to 25 nM
  Dmax: > 75%

## COc1cc(-c2cn(C)c(=O)c(C)c2C)cc(OC)c1CN1CCC(COc2ccc3c(c2)[C@H](C)N(C(=O)/C(C#N)=C/C(C)(C)C)CC3)CC1 [Compound C61]
  DC50: < 1.25 nM
  Dmax: > 75%

## COc1cc(-c2cn(C)c(=O)c(C)c2C)cc(OC)c1CN1CCC(Cc2cccc3c2CCN(C(=O)/C(C#N)=C/C(C)(C)C)C3C)C(C)(C)C1 (centres unmarked) [Compound C62]
  DC50: 10 to 25 nM
  Dmax: > 75%

## COc1cc(-c2cn(C)c(=O)c(C)c2C)ccc1OC1CCC(Cc2cccc3c2CCN(C(=O)/C(C#N)=C/C(C)(C)N2CCN(C)CC2)C3C(C)C)CC1 (centres unmarked) [Compound C85]
  DC50: 25 to 1000 nM
  Dmax: > 75%
